Measurements published in patent US12030876B2, “Aryl hydrocarbon receptor (AHR) agonists and uses thereof” (Ikena Oncology, Inc., priority 2019, dated 2024).

Assays:
[1] = tested on: naive CD62L+ human T-Cells; assay: Th17 assay; type: cell-based; settings: FIG. 16
Experimental: On Day 1, naive CD62L+ human T-Cells were plated in a 96 well plate (25,000 cells in 200 uL media). Cells were activated with human CD3/CD28 tetramer (12.5 μL/1×10^6 cells) and differentiated with human Th17 cytokines (50 ng/mL IL-6, 20 ng/mL IL-1 beta, 10 ng/mL IL-23, 1 ng/mL TGF-beta, 12 μg/mL anti-human IFN-γ antibody and 10 μg/mL anti-human TL-4 antibody) for 10 days. Media containing cytokine cocktail and CD3/CD28 was refreshed every 2-3 days. On Day 10, cell supernatant was collected and frozen for cytokine analysis. Cells were stimulated with 1× Cell Stimulation Cocktail (PMA and Ionomycin) for 5 hours. After 5 hours of stimulation, cells were stained for intracellular cytokines (human CD4, IL-17A, IL-22). Samples were run on BD LSR FORTESSA and analyzed in FLOWJO software.

[2] = tested on: Cyp1a1 gene expression; parameters: species or system C57BL/6N mice; settings: mouse, in vivo
Experimental: C57BL/6N mice are weighed and randomized into treatment groups with group size of 3-5 mice. On study Day 1, treatment is initiated and necropsies follow on day 1 at 4 and 12 hours post-dose and on Day 2, 24 hours post-dose. On Day 1, mice are dosed orally with one dose of the AHR agonist compound(s) that are in a suspension and mixed well before dosing. At the designated time, animals are euthanized and plasma and tissue taken for compound levels (PK) and compound effect (PD) on gene expression. Liver samples and proximal colon are weighed and then frozen for subsequent RNA extraction and RT-PCR analysis. AHR activation is determined by measuring Cyp1a1 gene expression relative to a housekeeping gene, such as GAPDH or HPRT. Cyp1a1 expression levels in the liver are compared to Cyp1a1 levels in the colon to determine a colon:liver ratio to determine the level of GI preferred AHR activation.

[3] = tested on: human regulatory T cells (Tregs); assay: Treg assay (human); type: cell-based; settings: compound present during induction of Tregs, in vitro; FIG. 15
Experimental: On day 0, naïve T cells from cryopreserved human derived PBMCs were isolated. These cells were plated in 48 well plate at 500,000 cells/mL concentration with human CD3/CD28 activation tetramer (12.5 μL/1×10^6 cells) and differentiated into regulatory T cells (Tregs) with 1 ng/mL […] and 5 ng/mL human recombinant TL-2 in the presence of DMSO or different concentrations of AHR agonist compounds.
On day 5, the Tregs were counted and washed. CD25− Effector T cells (Teffs) were isolated from the same human donor and were labeled with Cell Trace Violet. The Tregs and Teffs were cocultured for 4 days in 96 well plate at 1:2 or 1:1 ratio with human CD3/CD28 tetramer (12.5 μL/1×10^6 cells).
At the end of a 4 day co-culture, the cells were washed and stained with LiveDead stain. They were run on flow cytometer and analyzed using FLOWJO software.

[4] = tested on: human Crohn's and ulcerative colitis tissue cultures
[5] = tested on: DSS model of Inflammatory Bowel Disease (IBD); parameters: species or system C57Bl/6 mice; settings: mouse
[6] = tested on: DSS model of Inflammatory Bowel Disease (IBD); type: in vivo, C57Bl/6 mice; settings: DSS model
Experimental: On study day −1, C57Bl/6 mice are weighed and randomized into treatment groups based on body weight. On study day 0, treatment groups are given 2.5% DSS in drinking water and treatment is initiated on the same day, with either vehicle or AHR agonist compound(s). On study day 7, DSS drinking water is replaced with normal drinking water for the remainder of the study. Body weight is measured daily during the entire study. On study day 10, animals are anesthetized with Isoflurane and bled to exsanguination followed by cervical dislocation. The entire colon is removed and measured for length, weight, and weight per length. Overall efficacy of test AR agonist compounds is based on body weight, colon length, and colon histopathology. Histopathology data is assessed for appropriate parameters, as determined by a pathologist and the parameters for these DSS studies can include inflammation, erosion, gland loss, edema, hyperplasia, neutrophil count, mucosal thickening, lymphoid aggregate count and lymphoid aggregate size. The different parameter scores can be added for a summed score for the study histopathology.

[7] = tested on: T-cell transfer IBD model; type: in vivo, SCID mice
Experimental: On study day 0, donor Balb/C mice are terminated, and spleens obtained for CD4+CD45RB^high cell isolation (Using a SCID IBD Cell Separation Protocol). After cells have been sorted and obtained, each recipient SCID animal receives an IP injection of, at a minimum, 4×10^5 cells (200 μl/mouse injections). Also on study day 0, SCID mice are weighed and randomized into treatment groups based on body weight. On study day 14, AHR agonist compound treatments are initiated and dosed orally daily; the control group receiving anti-IL12 (0.5 mg/mouse) is dosed IP once a week. On study day 49, animals are anesthetized with Isoflurane and bled to exsanguination followed by cervical dislocation. The entire colon is removed, measured, and weighed. Overall efficacy of AHR agonist compounds are based on a ratio of colon weight to length, and colon histopathology and colon cytokines (Th17 panel).

[8] = T-cell transfer IBD model, FIG. 9

| Compound | IL-17A+ human T-cells ([1]; Th17 polarizing conditions) | IL-22+ human T-cells ([1]; Th17 polarizing conditions) | human Th17 cell differentiation ([1]; in vitro) | Cyp1a1 induction in the colon [2] | suppressive functions of human Tregs [3] | cytokine release: IFN-γ, IL-17A, IL-1β, and TNF-α [4] | in vivo AHR activation by expression of Cyp1a1 in the colon [5] | inflammation and erosion (histopathology) ([6]; relative to vehicle control, FIG. 6, FIG. 19) | colon length ([6]; FIG. 5) | content score ([6]; FIG. 5) | cytokine activity: IFN-γ, IL-1β, and MIP-3α/CCL20 ([7]; T-cell transfer IBD model, colon cytokines, FIG. 11) | cytokine activity: GM-CSF and IL-6 ([7]; T-cell transfer IBD model, colon cytokines, FIG. 12) | cytokine activity: IL-17/IL-25 and TNF-α ([7]; T-cell transfer IBD model, colon cytokines, FIG. 13) | body weight [7, 8] | colon weight [7, 8] | reduction in colon weight compared to vehicle [7, 8] | reduction in colon weight per length compared to vehicle [7, 8] | inflammation ([7]; T-cell transfer IBD model, FIG. 10) | in vivo AHR activation by expression of Cyp1a1 in the colon ([7]; mouse, in vivo) |
| --- | --- | --- | --- | --- | --- | --- | --- | --- | --- | --- | --- | --- | --- | --- | --- | --- | --- | --- | --- |
| Nc1cccc(-c2csc(Nc3cccc(C(F)(F)F)c3)n2)c1 [I-10] | decreases | increases | modulates | comparable | increases suppressive functions | decreases | – | – | – | – | – | – | – | – | – | – | – | – | – |
| FC(F)(F)c1cccc(Nc2nc(-c3cccc(Cl)c3)cs2)c1 [Compound P-2] | – | – | – | – | – | – | confirmed | minimal inflammation and mild erosion | increased colon length | improved content score | significant reduction | significant reduction | reduction | increased body weight | decreased colon weight | 54% | 54% | significant reduction | confirmed |
